Assay results published in ChEMBL document CHEMBL3045631, “Anticandidiasis agents from a Tanzanian plant, Combretum zeyheri” (2013).
≈ marks a conversion by molar mass, not a printed value.

Assays:
Assay type in all cases: functional
Candida albicans [1] = assay: Antifungal activity against Candida albicans clinical isolate by two-fold serial microdilution method
Candida albicans [2] = assay: Antifungal activity against Candida albicans ATCC 90028 by two-fold serial microdilution method
Candida albicans [3] = assay: Antifungal activity against Candida albicans MTCC 1637 by two-fold serial microdilution method

MIC (Candida albicans [1]) [µg/mL]	MIC (Candida albicans [2]) [µg/mL]	MIC (Candida albicans [3]) [µg/mL]	Compound
> 250	> 250	> 250	CC1(C)CC[C@]2(C(=O)O)CC[C@]3(C)C(=CC[C@@H]4[C@@]5(C)C[C@@H](O)[C@H](O)C(C)(C)[C@@H]5[C@H](O)C[C@]43C)[C@@H]2C1 [6-beta-hydroxymaslinic acid]
0.39 (≈ 1.13 µM)	0.78 (≈ 2.26 µM)	0.39 (≈ 1.13 µM)	Clc1ccccc1C(c1ccccc1)(c1ccccc1)n1ccnc1 [CLOTRIMAZOLE]
125 (≈ 248 µM)	62.5 (≈ 124 µM)	125 (≈ 248 µM)	CC1(C)CC[C@]2(C(=O)O)CC[C@]3(C)C(=CC[C@@H]4[C@@]5(C)C[C@@H](O)[C@H](O)[C@@](C)(CO)[C@@H]5[C@H](O)C[C@]43C)[C@@H]2C1 [TERMINOLIC ACID]

Compound	MIC (Candida albicans [1]) [µg/mL]	MIC (Candida albicans [2]) [µg/mL]	MIC (Candida albicans [3]) [µg/mL]
C[C@@H]1[C@H](O)[C@@H](C)/C=C/C=C/C=C/C=C/C=C/C=C/C=C/[C@H](O[C@@H]2O[C@H](C)[C@@H](O)[C@H](N)[C@@H]2O)C[C@@H]2O[C@](O)(C[C@@H](O)C[C@@H](O)[C@H](O)CC[C@@H](O)C[C@@H](O)CC(=O)O[C@H]1C)C[C@H](O)[C@H]2C(=O)O [AMPHOTERICIN B]	6.25 (≈ 6.76 µM)	3.13 (≈ 3.39 µM)	3.13 (≈ 3.39 µM)
